ChEMBL document CHEMBL6078673, “Synthesis and anti-tumor activity of menthylamine derivatives: Focusing on the potent inhibitory effect of compound W8 on glioma growth” (Bioorg Med Chem, 2025)
Values after ≈ are worked out from the molar mass of the structure shown. Active and inactive are the calls of the source. The calls are words filed in the database; no cut-off is given here.

Experiments:
KYSE-150 cell line = assay: Antiproliferative activity against human KYSE-150 cell line assessed as inhibition of cell growth incubated for 24 hrs by CCK-8 assay; type: functional, cell-based; settings: KYSE-150, 24 h
U-87 MG [1] = assay: Induction of apoptosis in human U87 cells assessed as increase in number of early apoptotic cells at 80 uM incubated for 24 hrs by Annexin V-FITC/PI staining based flow cytometry; type: functional, cell-based; settings: U-87MG ATCC
U-87 MG [2] = assay: Inhibition of cell invasion in human U87 cells incubated for 48 hrs by crystal violet staining based microscopic analysis; type: functional; settings: U-87MG ATCC
[3] = Toxicity in Balb/c mouse xenografted with human U87 cells assessed as histological change in brain at 10 mg/kg,ip administered every 3 days measured after 27 days by hematoxylin and eosin staining based assay; type: organism-based; settings: in vivo, 648 h, time 27 day
U-87 MG [4] = assay: Induction of apoptosis in human U87 cells assessed as increase in number of late apoptotic cells at 80 uM incubated for 24 hrs by Annexin V-FITC/PI staining based flow cytometry; type: functional, cell-based; settings: U-87MG ATCC
[5] = Toxicity in Balb/c mouse xenografted with human U87 cells assessed as histological change in kidney at 10 mg/kg,ip administered every 3 days measured after 27 days by TUNEL staining based assay; type: organism-based; settings: in vivo, 648 h, time 27 day
U-87 MG [6] = assay: Induction of apoptosis in human U87 cells at 80 uM incubated for 24 hrs by Annexin V-FITC/PI staining based flow cytometry; type: functional, U-87MG ATCC
U-87 MG [7] = assay: Antitumor activity against human U87 cells xenografted in Balb/c mouse assessed as reduction in tumor size at 10 mg/kg,ip administered every 3 days measured after 27 days; type: functional, organism-based; settings: U-87MG ATCC, time 27.0 day
[8] = Apparent permeability across apical to basolateral side in human Caco-2 cells at 2 uM incubated for 2 hrs by LC-MS/MS analysis; type: ADME, cell-based; settings: Caco-2
U-87 MG [9] = assay: Antiangiogenesis activity in human U87 cells assessed as inhibition of neovascularization at 80 uM incubated for 12 hrs by inverted fluorescence microscopic analysis; type: functional, cell-based; settings: U-87MG ATCC
[10] = Toxicity in Balb/c mouse xenografted with human U87 cells assessed as histological change in heart at 10 mg/kg,ip administered every 3 days measured after 27 days by hematoxylin and eosin staining based assay; type: organism-based; settings: in vivo, 648 h, time 27 day
[11] = Toxicity in Balb/c mouse xenografted with human U87 cells assessed as histological change in spleen at 10 mg/kg,ip administered every 3 days measured after 27 days by hematoxylin and eosin staining based assay; type: organism-based; settings: in vivo, 648 h, time 27 day
U-87 MG [12] = assay: Induction of apoptosis in human U87 cells assessed as increase in number of necrotic cells at 80 uM incubated for 24 hrs by Annexin V-FITC/PI staining based flow cytometry; type: functional, cell-based; settings: U-87MG ATCC
[13] = Toxicity in Balb/c mouse xenografted with human U87 cells assessed as histological change in lung at 10 mg/kg,ip administered every 3 days measured after 27 days by TUNEL staining based assay; type: organism-based; settings: in vivo, 648 h, time 27 day
U-87 MG [14] = assay: Induction of apoptosis in human U87 cells assessed as increase in number of apoptotic cells at 80 uM incubated for 24 hrs by Annexin V-FITC/PI staining based flow cytometry; type: functional, cell-based; settings: U-87MG ATCC
U-87 MG [15] = assay: Antitumor activity in human U87 cells assessed as downregulation of VEGFR2 expression at 80 uM incubated for 24 hrs by Western blotting analysis; type: functional, cell-based; settings: U-87MG ATCC
[16] = Metabolic stability in liver microsomes (unknown origin) assessed as compound remaining incubated for 60 mins by LC-MS/MS analysis; type: ADME, Microsome; settings: read-out: Stability
U-87 MG [17] = assay: Induction of cell cycle arrest in human U87 cells assessed as increase in number of cells at S phase at 80 uM incubated for 24 hrs by RNase/PI staining based flow cytometry; type: functional; settings: U-87MG ATCC
[18] = Toxicity in Balb/c mouse xenografted with human U87 cells assessed as histological change in lung at 10 mg/kg,ip administered every 3 days measured after 27 days by hematoxylin and eosin staining based assay; type: organism-based; settings: in vivo, 648 h, time 27 day
[19] = Toxicity in Balb/c mouse xenografted with human U87 cells assessed as histological change in kidney at 10 mg/kg,ip administered every 3 days measured after 27 days by hematoxylin and eosin staining based assay; type: organism-based; settings: in vivo, 648 h, time 27 day
[20] = Toxicity in Balb/c mouse xenografted with human U87 cells assessed as histological change in liver at 10 mg/kg,ip administered every 3 days measured after 27 days by hematoxylin and eosin staining based assay; type: organism-based; settings: in vivo, 648 h, time 27 day
U-87 MG [21] = assay: Antitumor activity in human U87 cells assessed as downregulation of ANGP-2 expression at 80 uM incubated for 24 hrs by Western blotting analysis; type: functional, cell-based; settings: U-87MG ATCC
[22] = Toxicity in Balb/c mouse xenografted with human U87 cells assessed as histological change in liver at 10 mg/kg,ip administered every 3 days measured after 27 days by TUNEL staining based assay; type: organism-based; settings: in vivo, 648 h, time 27 day
U-87 MG [23] = assay: Antitumor activity in human U87 cells assessed as downregulation of […] expression at 80 uM incubated for 24 hrs by Western blotting analysis; type: functional, cell-based; settings: U-87MG ATCC
[24] = Kinetic solubility in PBS at pH 7.4 incubated under shaking condition for 24 hrs by LC-MS/MS analysis; type: physicochemical; settings: read-out: Kinetic_solubility
U-87 MG [25] = assay: Inhibition of cell migration in human U87 cells at 80 uM incubated for 48 hrs by scratch assay; type: functional, cell-based; settings: U-87MG ATCC
HCT-116 = assay: Antiproliferative activity against human HCT-116 cells assessed as inhibition of cell growth incubated for 24 hrs by CCK-8 assay; type: functional, cell-based; settings: HCT-116, 24 h
U-87 MG [26] = assay: Induction of cell cycle arrest in human U87 cells assessed as decrease in number of cells at G2 phase at 80 uM incubated for 24 hrs by RNase/PI staining based flow cytometry; type: functional; settings: U-87MG ATCC
U-87 MG [27] = assay: Induction of cell cycle arrest in human U87 cells assessed as decrease in number of cells at G1 phase at 80 uM incubated for 24 hrs by RNase/PI staining based flow cytometry; type: functional; settings: U-87MG ATCC
U-87 MG [28] = assay: Antiproliferative activity against human U87 cells assessed as inhibition of cell growth incubated for 24 hrs by CCK-8 assay; type: functional, cell-based, U-87MG ATCC
[29] = Metabolic stability in liver microsomes (unknown origin) assessed as half life incubated for 60 mins by LC-MS/MS analysis; type: ADME, Microsome
[30] = Toxicity in Balb/c mouse xenografted with human U87 cells assessed as body weight loss at 10 mg/kg,ip administered every 3 days measured after 27 days; type: organism-based; settings: in vivo, 648 h, time 27 day
[31] = Efflux ratio of apparent permeability from basolateral to apical side over apical to basolateral side in human Caco-2 cells at 2 uM incubated for 2 hr by LC-MS/MS analysis; type: ADME, cell-based; settings: Caco-2
MCF7 = assay: Antiproliferative activity against human MCF7 cells assessed as inhibition of cell growth incubated for 24 hrs by CCK-8 assay; type: functional, cell-based; settings: MCF7, 24 h
[32] = Toxicity in Balb/c mouse xenografted with human U87 cells assessed as histological change in spleen at 10 mg/kg,ip administered every 3 days measured after 27 days by TUNEL staining based assay; type: organism-based; settings: in vivo, 648 h, time 27 day
U-87 MG [33] = assay: Antitumor activity in human U87 cells assessed as upregulation of cleaved caspase-3 expression at 80 uM incubated for 24 hrs by Western blotting analysis; type: functional, cell-based; settings: U-87MG ATCC
HUVEC = assay: Antiangiogenesis activity in human HUVEC cells assessed as inhibition of vascular structure formation at 80 uM incubated for 12 hrs by inverted fluorescence microscopic analysis; type: functional, cell-based
[34] = Toxicity in Balb/c mouse xenografted with human U87 cells assessed as histological change in heart at 10 mg/kg,ip administered every 3 days measured after 27 days by TUNEL staining based assay; type: organism-based; settings: in vivo, 648 h, time 27 day
U-87 MG [35] = assay: Antitumor activity in human U87 cells assessed as downregulation of CD133 expression at 80 uM incubated for 24 hrs by Western blotting analysis; type: functional, cell-based; settings: U-87MG ATCC
[36] = Apparent permeability across basolateral to apical side in human Caco-2 cells at 2 uM incubated for 2 hrs by LC-MS/MS analysis; type: ADME, cell-based; settings: Caco-2
[37] = Toxicity in Balb/c mouse xenografted with human U87 cells assessed as histological change in brain at 10 mg/kg,ip administered every 3 days measured after 27 days by TUNEL staining based assay; type: organism-based; settings: in vivo, 648 h, time 27 day

- Papp A→B at 2 h, 2 µM [8]: 25.7 ×10⁻⁶ cm/s
- remaining at 1 h [16]: 82.8%
- solubility kinetic at 24 h [24]: 0.03 µM (≈ 8.56 ng/mL)
- IC50 (HCT-116): 57.2 µM
- IC50 (U-87 MG [28]): 65.3 µM
- half-life [29]: > 2.42 h
- efflux ratio at 2 h, 2 µM [31]: 0.52
- IC50 (MCF7): 1490 µM
- Papp B→A at 2 h, 2 µM [36]: 13.3 ×10⁻⁶ cm/s
SMILES: CC(C)[C@H]1CC[C@@H](C)C[C@@H]1N1C(=O)c2ccccc2C1=O
- IC50 (KYSE-150 cell line): 972 µM
- Activity (U-87 MG [1]): Active
- inhibition (U-87 MG [2]): Active
- Activity [3]: Non-toxic
- Activity (U-87 MG [4]): Active
- Activity [5]: Non-toxic
- Activity (U-87 MG [6]): 90%
- Activity (U-87 MG [7]): Active
- Activity (U-87 MG [9]): Active
- Activity [10]: Non-toxic
- Activity [11]: Non-toxic
- Activity (U-87 MG [12]): Active
- Activity [13]: Non-toxic
- Activity (U-87 MG [14]): Active; Significantly Increased Activity Observed
- Activity (U-87 MG [15]): Active
- Activity (U-87 MG [17]): inactive
- Activity [18]: Non-toxic
- Activity [19]: Non-toxic
- Activity [20]: Non-toxic
- Activity (U-87 MG [21]): Active
- Activity [22]: Non-toxic
- Activity (U-87 MG [23]): Active
- inhibition (U-87 MG [25]): Active
- Activity (U-87 MG [26]): inactive
- Activity (U-87 MG [27]): inactive
- Activity [30]: Non-toxic
- Activity [32]: Non-toxic
- Activity (U-87 MG [33]): Active
- Activity (HUVEC): Active
- Activity [34]: Non-toxic
- Activity (U-87 MG [35]): Active
- Activity [37]: Non-toxic
